Test system: food intake
Assay: food intake reduction determination protocol in dogs
Assay type: in vivo
Conditions: male beagles, oral gavage, dosing solution 0.5 mg/mL at 1 mL per kg body weight, single dose on Days 0 and 5-12; 24 hour food consumption versus amount consumed prior to Day 0
From the text: Healthy, young adult (1-2 years of age) male beagles (Marshall Farms, North Rose, New York, NY 14516) weighing 11.45 - 12.45 kg at the start of the treatment period were employed as test subjects. The animals were housed individually in standard caging meeting or exceeding the USDA regulations (U.S. Department of Agriculture, Animal Welfare, Final Rules. 9 C.F.R. Parts 1-3, 1995).
The test compound was provided as a water-soluble powder. The dosing solution, administered by oral gavage, was provided employing a 0.025 M citrate buffer (approx. pH = 3) prepared using anhydrous citric acid (0.4 g/mL) and anhydrous sodium citrate (0.1 g/mL) as the test vehicle. The dosing solution was prepared at 0.5 mg/mL activity so that 1 mL was delivered per kg body weight. Following a fourteen day acclimation period (designated as Days -14 to -1), during which time the test animals were evaluated for certain criteria including determination of body weight and physical examinations, a sixteen day evaluation study was effected.
The study consisted of one group of animals containing five dogs. On Days 0 and 5-12, each dog received the dosing solution administered as a single dose at Time 0 on each dosing day via a feeding tube. […]
Reduction in food intake was quantitated by weighing individual food bowls each day prior to feeding and at the end of each 24 hour consumption period. […]

Compound	reduced food intake in dogs
CC(=O)NCCN1CCc2cc(NC(=O)c3ccccc3-c3ccc(C(F)(F)F)cc3)ccc2C1 [4'-trifluoromethyl-biphenyl-2-carboxylic acid-[2-(2-acetylaminoethyl)-1,2,3,4-tetrahydroisoquinolin-6-yl amide]	58%
CCCCN1CCc2cc(NC(=O)c3ccccc3-c3ccc(C(F)(F)F)cc3)ccc2C1 [4'-trifluoromethyl-biphenyl-2-carboxylic acid-(2-butyl-1,2,3,4-tetrahydroisoquinolin-6-yl)-amide]	30%
